From the NIST ThermoML archive (doi:10.1021/acs.jced.7b00372) come the findings set out here.

Molecules are shown by their SMILES. Several values for one entry are separate records, joined by “and”; a condition that tells them apart may be missing. Identical values can stand only once. ± gives the expanded uncertainty stated by the source.

For data set [1] the following is noted: Liquid, Ebulliometric method (Recirculating still).
Data set [2] can be described thus: refractive index (Na D-line) (dimensionless). Conditions: 93 kPa, Liquid, Standard Abbe refractometry.
Data set [3] is described as follows: refractive index (Na D-line) (dimensionless); xn = mol fraction of the nth substance listed. Conditions: 293.15 K, 93 kPa, Liquid, Standard Abbe refractometry.

`COC(=O)OC` [dimethyl carbonate]: the vapor or sublimation pressure (as a rule, the pressure of vapour in equilibrium with the condensed phase) in data set [1] (360.73 K) is given as 93.13 ± 0.96 kPa. For the same compound, the refractive index (as a rule, a measure of how strongly the sample bends light) in data set [2] (293.15 K) was 1.3687 ± 0.0004 and 1.3688 ± 0.0004; in data set [2] (298.15 K), 1.3664 ± 0.0004.

Turning to `Cc1ccc(C)cc1` [1,4-dimethylbenzene] + COC(=O)OC, the refractive index in data set [3] (x1 = 0.0368) stood at 1.3752 ± 0.0005; in data set [3] (x1 = 0.0866), 1.3835 ± 0.0005; in data set [3] (x1 = 0.157), 1.3946 ± 0.0005; in data set [3] (x1 = 0.2639) it was 1.4106 ± 0.0005; in data set [3] (x1 = 0.3598), 1.4241 ± 0.0005; in data set [3] (x1 = 0.4244) it was 1.4326 ± 0.0005. The refractive index was determined as 1.4457 ± 0.0005 in data set [3] (x1 = 0.5293); 1.4586 ± 0.0005 in data set [3] (x1 = 0.6397); 1.4724 ± 0.0005 in data set [3] (x1 = 0.7655); 1.4848 ± 0.0005 in data set [3] (x1 = 0.8832); 1.4898 ± 0.0005 in data set [3] (x1 = 0.938); 1.4956 ± 0.0004 in data set [3] (x1 = 1).

Regarding `CCc1ccccc1` [ethylbenzene] + COC(=O)OC, the refractive index turned out to be 1.3767 ± 0.0005 in data set [3] (x1 = 0.0462); 1.3836 ± 0.0005 in data set [3] (x1 = 0.089); 1.397 ± 0.0005 in data set [3] (x1 = 0.1753); 1.4109 ± 0.0005 in data set [3] (x1 = 0.2701); 1.4232 ± 0.0005 in data set [3] (x1 = 0.3564); 1.4335 ± 0.0006 in data set [3] (x1 = 0.4359). The refractive index in data set [3] (x1 = 0.4448) is given as 1.4352 ± 0.0005; in data set [3] (x1 = 0.468), 1.4382 ± 0.0005; in data set [3] (x1 = 0.5157), 1.4441 ± 0.0005; in data set [3] (x1 = 0.5825), 1.4527 ± 0.0005; in data set [3] (x1 = 0.6639), 1.4617 ± 0.0005; in data set [3] (x1 = 0.7377) it was 1.4702 ± 0.0005. The refractive index in data set [3] (x1 = 0.852) is recorded as 1.4815 ± 0.0005; in data set [3] (x1 = 0.8827), 1.4847 ± 0.0005; in data set [3] (x1 = 0.9124), 1.4873 ± 0.0005; in data set [3] (x1 = 0.9395), 1.49 ± 0.0005; in data set [3] (x1 = 1), 1.4956 ± 0.0004.

In the case of `Cc1cccc(C)c1` [1,3-dimethylbenzene], the “vapor or sublimation pressure” value in data set [1] (409.13 K) is listed as 93.13 ± 0.96 kPa. In addition, the refractive index in data set [2] (293.15 K) was found to be 1.497 ± 0.0004; in data set [2] (298.15 K), 1.4943 ± 0.0004.

In the case of `Cc1cccc(C)c1` [1,3-dimethylbenzene] + COC(=O)OC, the refractive index in data set [3] (x1 = 0.0467) is on record as 1.3769 ± 0.0005; in data set [3] (x1 = 0.0871), 1.3836 ± 0.0005; in data set [3] (x1 = 0.1737) it was 1.3973 ± 0.0005; in data set [3] (x1 = 0.2042) it was 1.4021 ± 0.0005; in data set [3] (x1 = 0.2593), 1.4101 ± 0.0005; in data set [3] (x1 = 0.3033), 1.4167 ± 0.0005. Besides, the refractive index is on record as 1.4262 ± 0.0005 in data set [3] (x1 = 0.3719); 1.4359 ± 0.0005 in data set [3] (x1 = 0.4455); 1.439 ± 0.0005 in data set [3] (x1 = 0.4709); 1.4481 ± 0.0005 in data set [3] (x1 = 0.5421); 1.4612 ± 0.0005 in data set [3] (x1 = 0.6549); 1.4738 ± 0.0005 in data set [3] (x1 = 0.7672). For the same compound, the refractive index is 1.4839 ± 0.0005 in data set [3] (x1 = 0.8662), 1.4913 ± 0.0005 in data set [3] (x1 = 0.94) and 1.497 ± 0.0004 in data set [3] (x1 = 1).

On to `COC(=O)OC` [dimethyl carbonate] + Cc1ccccc1C, for which the refractive index in data set [3] (x2 = 0) came to 1.3688 ± 0.0004.

For the compound `CCc1ccccc1` [ethylbenzene], the “vapor or sublimation pressure” value in data set [1] (406.23 K) turned out to be 93.13 ± 0.96 kPa. In addition, the refractive index in data set [2] (293.15 K) was found to be 1.4956 ± 0.0004; in data set [2] (298.15 K), 1.493 ± 0.0004.

In the case of `Cc1ccccc1C` [1,2-dimethylbenzene] + COC(=O)OC, the refractive index in data set [3] (x1 = 0.045) came to 1.377 ± 0.0005; in data set [3] (x1 = 0.1564), 1.3961 ± 0.0005; in data set [3] (x1 = 0.1622) it was 1.3969 ± 0.0005; in data set [3] (x1 = 0.2752), 1.4149 ± 0.0005; in data set [3] (x1 = 0.36) it was 1.4272 ± 0.0005; in data set [3] (x1 = 0.4516) it was 1.4397 ± 0.0005. Also, the refractive index in data set [3] (x1 = 0.5655) came to 1.4556 ± 0.0005; in data set [3] (x1 = 0.603) it was 1.4601 ± 0.0005; in data set [3] (x1 = 0.7134) it was 1.4734 ± 0.0005; in data set [3] (x1 = 0.7602), 1.4795 ± 0.0005; in data set [3] (x1 = 0.8813), 1.493 ± 0.0005; in data set [3] (x1 = 0.9276) it was 1.4973 ± 0.0005. The refractive index in data set [3] (x1 = 1) worked out at 1.5048 ± 0.0004.

For `COC(=O)OC` [dimethyl carbonate] + Cc1cccc(C)c1, the refractive index in data set [3] (x2 = 0) was 1.3688 ± 0.0004.

`COC(=O)OC` [dimethyl carbonate] + Cc1ccc(C)cc1: the refractive index in data set [3] (x2 = 0) worked out at 1.3687 ± 0.0004.

As to `Cc1ccc(C)cc1` [1,4-dimethylbenzene], the “vapor or sublimation pressure” value in data set [1] (408.37 K) turned out to be 93.13 ± 0.96 kPa. The refractive index is on record as 1.4956 ± 0.0004 in data set [2] (293.15 K) and 1.4929 ± 0.0004 in data set [2] (298.15 K).

In the case of `COC(=O)OC` [dimethyl carbonate] + CCc1ccccc1, the refractive index in data set [3] (x2 = 0) came out at 1.3688 ± 0.0004.

Take `Cc1ccccc1C` [1,2-dimethylbenzene]: in data set [1] (414.41 K), the “vapor or sublimation pressure” value amounted to 93.13 ± 0.96 kPa. The refractive index is listed as 1.5048 ± 0.0004 in data set [2] (293.15 K) and 1.5022 ± 0.0004 in data set [2] (298.15 K).
